Patent US11142535B2, “Heterocyclic compound as Syk inhibitor and/or Syk-HDAC dual inhibitor” (Hangzhou Innogate Pharma Co., Ltd., priority 2016, dated 2021)

Assays:
SYK protein kinase = SYK protein kinase (Homo sapiens (Human), UniProt P43405); assay: Syk kinase activity inhibition, Caliper mobility shift assay; type: biochemical; conditions: Peptide FAM-P22 and ATP, 30 minutes, 28° C.
Procedure: Measure of SYK protein kinase activity was carried out by using the Caliper mobility shift assay. The compound was dissolved with DMSO and diluted with kinase buffer (20 mM HEPES pH 7.5, 0.01% Triton X-100, 5 mM MgCl2, 1 mM MnCl2, 2 mM DTT), and 5 μl of 5 times the final concentration of the compounds (10% DMSO) were added to 384 well plate. […] The mixture was incubated for 30 minutes under 28° C., and 25 μl of stop buffer (100 mM HEPES pH 7.5, 0.015% Brij-35, 0.2% Coating Reagent #3, 50 mM EDTA) was added to terminate the reaction. Conversion rate data was read by Caliper EZ Reader II (Caliper Life Sciences). Conversion rate was converted to inhibition rate data (% inhibition rate=(max−conversion rate)/(max−min)*100). The max refers to the conversion rate of the DMSO control, and min refers to the conversion rate of the enzyme-free control. The curve was drawn with the compound concentration and inhibition rate as the horizontal and vertical coordinates, and the curve was fitted with the XLFit excel add-in version 4.3.1 Software, and IC50 was calculated.

HDAC1 = HDAC1 (Homo sapiens (Human), UniProt Q13547); assay: HDAC-1 activity inhibition, fluorescence (Synergy MX); type: biochemical; conditions: trypsin and Ac-peptide substrate, 60 minutes, room temperature
Procedure: HDAC activity was measured by the Synergy MX Multi-Function Microplate Reader. The compounds were dissolved with DMSO, and transferred to a 384 well test plate using an Echo non-contact nanoscale sonic pipetting system. 15 μl of enzyme (HDAC1/HDAC6, respectively) solvent was added, and incubated at room temperature for 15 minutes, then 10 μl of substrate (trypsin and Ac-peptide) solution was added. […] Fluorescence intensity signal was convented into inhibition rate data (% inhibition rate=(max−fluorescence intensity)/(max−min)*100). The max refers to the fluorescence intensity of the DMSO control, and min refers to the fluorescence intensity of the enzyme-free control. The curve was drawn with the compound concentration and inhibition rate as the horizontal and vertical coordinates, and the curve was fitted with the GraphPad Prism V5.0 Software, and IC50 was calculated.

Sequence of HDAC1 (Q13547 whole entry, species assumed): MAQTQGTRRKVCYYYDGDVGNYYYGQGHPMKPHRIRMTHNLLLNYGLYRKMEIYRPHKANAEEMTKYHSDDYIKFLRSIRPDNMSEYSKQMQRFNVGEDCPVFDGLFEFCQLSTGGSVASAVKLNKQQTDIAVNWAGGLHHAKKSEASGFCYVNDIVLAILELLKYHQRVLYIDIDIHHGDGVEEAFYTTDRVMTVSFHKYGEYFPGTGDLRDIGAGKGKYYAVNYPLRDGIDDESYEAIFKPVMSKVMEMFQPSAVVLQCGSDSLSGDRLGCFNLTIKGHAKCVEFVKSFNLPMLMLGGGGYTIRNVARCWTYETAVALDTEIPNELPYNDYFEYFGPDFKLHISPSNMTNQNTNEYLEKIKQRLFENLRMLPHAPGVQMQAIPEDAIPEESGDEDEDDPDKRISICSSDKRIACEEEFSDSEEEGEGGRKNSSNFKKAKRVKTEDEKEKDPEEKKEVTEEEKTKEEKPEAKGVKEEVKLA

| Compound | IC50 (SYK protein kinase) [nM] | IC50 (HDAC1) [nM] |
| --- | --- | --- |
| CN(CCN(C)c1ncc(C(=O)NO)cn1)c1ccc(Nc2nc(-c3ccc4cn[nH]c4c3)cn3ccnc23)cc1 [Compound 23] | < 50 | < 30 |
| CN(CCOCCC(=O)NO)c1ccc(Nc2nc(-c3ccc4cn[nH]c4c3)cn3ccnc23)cc1 [Compound 22] | < 50 | < 500 |
| O=C(N1CCN2c3ccc(Nc4nc(-c5ccc6cn[nH]c6c5)cn5ccnc45)cc3OC[C@H]2C1)C(F)(F)F [Compound 9R] | < 100 | – |
| CN(CCCCCCC(=O)NO)c1ccc(Nc2nc(-c3ccc4cn[nH]c4c3)cn3ccnc23)cc1 [Compound 20] | < 50 | < 20 |
| O=C(CCCCCCn1ncc2ccc(-c3cn4ccnc4c(Nc4ccc(N5CCOCC5)cc4)n3)cc21)NO [Compound 14] | < 500 | < 20 |
| O=C(NO)c1ccc(NC(=O)c2cccc(-c3cn4ccnc4c(Nc4ccc(N5CCOCC5)cc4)n3)c2)cc1 [Compound 13] | < 100 | < 200 |
